# According to patent publication US20250340574A1, “MODULATORS OF CYSTIC FIBROSIS TRANSMEMBRANE CONDUCTANCE REGULATOR” (Vertex Pharmaceuticals Incorporated, priority 2022, published 2025):
# Like-named read-outs stand apart in the source and are kept apart here.
# Legend:
# [1] = amide bond, 13-membered ring, CDMT/NMM, DMF
# [2] = biological target: T1, CFTR (F508del/MF-HBE cells) (Homo sapiens, UniProt P13569, DEL508-508); assay: Ussing chamber assay of CFTR-mediated short-circuit currents, Assay A (0.1 μM to 25 μM, 6 concentrations); type: cell-based; conditions: with 33 nM potentiator and 18 μM Tezacaftor, 20% human serum; for Emax: 18-24 hours, read-out: A Max activity (%)
# T1 construct: human bronchial epithelial (HBE) cells derived from CF subjects heterozygous for F508del and a minimal function CFTR mutation (F508del/MF-HBE); endogenous in cells; host or cells: Primary human bronchial epithelial cells from CF subjects (F508del/MF genotype), differentiated at an air-liquid interface
# T1 sequence (P13569 with tags, fused parts or gaps DEL508-508): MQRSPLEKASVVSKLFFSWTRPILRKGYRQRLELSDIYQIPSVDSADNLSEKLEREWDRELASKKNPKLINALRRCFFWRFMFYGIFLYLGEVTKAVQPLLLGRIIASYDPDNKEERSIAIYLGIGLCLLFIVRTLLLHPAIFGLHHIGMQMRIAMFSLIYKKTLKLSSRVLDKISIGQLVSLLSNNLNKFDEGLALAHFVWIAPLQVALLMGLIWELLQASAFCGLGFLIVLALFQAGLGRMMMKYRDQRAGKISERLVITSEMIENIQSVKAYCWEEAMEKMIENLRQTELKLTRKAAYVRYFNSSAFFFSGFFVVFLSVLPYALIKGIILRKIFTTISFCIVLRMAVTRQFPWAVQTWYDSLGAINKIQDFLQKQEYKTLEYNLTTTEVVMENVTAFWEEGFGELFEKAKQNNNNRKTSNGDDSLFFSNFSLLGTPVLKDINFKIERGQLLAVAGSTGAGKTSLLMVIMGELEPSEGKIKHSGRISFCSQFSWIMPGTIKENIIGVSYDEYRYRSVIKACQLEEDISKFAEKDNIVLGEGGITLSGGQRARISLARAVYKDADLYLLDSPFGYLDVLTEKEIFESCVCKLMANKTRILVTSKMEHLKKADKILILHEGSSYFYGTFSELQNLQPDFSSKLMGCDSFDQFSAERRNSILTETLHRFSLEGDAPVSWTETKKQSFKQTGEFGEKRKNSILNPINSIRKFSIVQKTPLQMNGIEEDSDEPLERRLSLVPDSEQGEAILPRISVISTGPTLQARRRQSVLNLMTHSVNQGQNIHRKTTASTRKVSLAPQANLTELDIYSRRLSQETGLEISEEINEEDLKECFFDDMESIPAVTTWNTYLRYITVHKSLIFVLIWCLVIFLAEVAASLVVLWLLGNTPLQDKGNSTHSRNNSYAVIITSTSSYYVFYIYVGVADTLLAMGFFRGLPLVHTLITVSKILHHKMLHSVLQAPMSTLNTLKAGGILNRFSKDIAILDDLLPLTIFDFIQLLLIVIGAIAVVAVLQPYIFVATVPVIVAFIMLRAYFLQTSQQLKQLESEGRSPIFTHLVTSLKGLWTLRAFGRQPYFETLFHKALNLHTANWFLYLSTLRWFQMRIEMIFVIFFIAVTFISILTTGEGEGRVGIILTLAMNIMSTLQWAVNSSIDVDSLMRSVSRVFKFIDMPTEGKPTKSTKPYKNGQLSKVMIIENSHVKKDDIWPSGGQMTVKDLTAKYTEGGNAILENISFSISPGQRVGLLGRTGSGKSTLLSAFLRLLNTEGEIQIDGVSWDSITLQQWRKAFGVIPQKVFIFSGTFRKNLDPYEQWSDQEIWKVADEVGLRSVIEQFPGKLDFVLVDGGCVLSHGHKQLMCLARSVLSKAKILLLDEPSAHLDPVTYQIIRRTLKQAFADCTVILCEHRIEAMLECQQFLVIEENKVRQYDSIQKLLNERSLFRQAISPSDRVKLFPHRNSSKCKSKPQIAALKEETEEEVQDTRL
# Procedure, shortened: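 F508del/MF-HBE cells were preincubated 18–24 h at 37 °C in 20% human serum with corrector plus 18 μM tezacaftor and either 33 nM (concentration series) or 44 nM (1 μM single point) of the aminotrifluoromethyl triazatricyclic potentiator. Ussing chamber, Vhold=0 mV, 37 °C; forskolin 20 μM stimulation, CFTR ISC taken as inhibitor-cocktail-sensitive current.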
# [3] = biological target: T1, CFTR (F508del/MF-HBE cells); assay: Ussing chamber assay of CFTR-mediated short-circuit currents, Assay B (0.00001 μM to 25 μM, 12 concentrations); type: cell-based; conditions: with 33 nM potentiator and 18 μM Tezacaftor, 20% human serum; for Emax: 18-24 hours, read-out: B Max activity (%)
# Method: Ussing chamber experiments were performed using human bronchial epithelial (HBE) cells derived from CF subjects heterozygous for F508del and a minimal function CFTR mutation (F508del/MF-HBE) and cultured as previously described (Neuberger T, Burton B, Clark H, Van Goor F Methods Mol Biol 2011:741:39-54). After four days the apical media was removed, and the cells were grown at an air liquid interface for >14 days prior to use.
# To isolate the CFTR-mediated short-circuit (ISC) current, F508del/MF-HBE grown on Costar® Snapwell™ cell culture inserts were mounted in an Ussing chamber and the transepithelial ISC was measured under voltage-clamp recording conditions (Vhold=0 mV) at 37° C. The basolateral solution contained (in mM) 145 NaCl, 0.83 K2HPO4, 3.3 KH2PO4, 1.2 MgCl2, 1.2 CaCl2, 10 Glucose, 10 HEPES (pH adjusted to 7.4 with NaOH) and the apical solution contained (in mM) 145 NaGluconate, 1.2 MgCl2, 1.2 CaCl2, 10 glucose, 10 HEPES (pH adjusted to 7.4 with NaOH) and 30 μM amiloride to block the epithelial sodium channel. Forskolin (20 μM) was added to the apical surface to activate CFTR, followed by apical addition of a CFTR inhibitor cocktail consisting of BPO, GlyH-101, and CFTR inhibitor 172 (each at 20 μM final assay concentration) to specifically isolate CFTR currents. The CFTR-mediated ISC (μA/cm^2) for each condition was determined from the peak forskolin response to the steady-state current following inhibition.
# The activity of the CFTR corrector compounds on the CFTR-mediated ISC was determined in Ussing chamber studies as described above. The F508del/MF-HBE cell cultures were either incubated with the corrector compounds at a range of concentrations in combination with 33 nM (6R,12R)-17-amino-12-methyl-6,15-bis(trifluoromethyl)-13,19-dioxa-3,4,18-triazatricyclo[12.3.1.12,5]nonadeca-1(18),2,4,14,16-pentaen-6-ol and 18 μM Tezacaftor or were incubated with the corrector compounds at a single fixed concentration of 1 μM in combination with 44 nM (6R,12R)-17-amino-12-methyl-6,15-bis(trifluoromethyl)-13,19-dioxa-3,4,18-triazatricyclo[12.3.1.12,5]nonadeca-1(18),2,4,14,16-pentaen-6-ol and 18 μM Tezacaftor for 18-24 hours at 37° C. and in the presence of 20% human serum. The concentration of corrector compounds with 44 nM or 33 nM (6R,12R)-17-amino-12-methyl-6,15-bis(trifluoromethyl)-13,19-dioxa-3,4,18-triazatricyclo[12.3.1.12,5]nonadeca-1(18),2,4,14,16-pentaen-6-ol and 18 μM Tezacaftor during the 18-24 hours incubations was kept constant throughout the Ussing chamber measurement of the CFTR-mediated ISC to ensure compounds were present throughout the entire experiment. The efficacy and potency of the putative F508del correctors was compared to that of the known Vertex corrector, (14S)-8-[3-(2-{Dispiro[2.0.2.1]heptan-7-yl}ethoxy)-1H-pyrazol-1-yl]-12,12-dimethyl-2λ^6-thia-3,9,11,18,23-pentaazatetracyclo[17.3.1.111,14.05,10]tetracosa-1(22),5,7,9,19(23),20-hexaene-2,2,4-trione, in combination with 18 μM Tezacaftor and 1 μM Ivacaftor.
# • Assay A: 0.1 μM to 25 μM, 6 concentrations • Assay B: 0.00001 μM to 25 μM, 12 concentrations • Assay C: 0.026 μM to 25 μM, 6 concentrations • Assay D: Activity at single concentration of 1 μM
Emax [2] [%],EC50 [2] [nM],Emax [3] [%],EC50 [3] [nM],Compound,"ring closure, yield after HPLC ([1]; from Cc1cccc(C)c1-c1cc(OC[C@@H](CC2(C)CC2)NCc2ccn3nc(C(C)C)cc3n2)nc(NS(=O)(=O)c2cccc(C(=O)O)c2)n1, 9.91 mM, 25.0 °C, 16.5 h) [%]","ring closure, yield after HPLC ([1]; from Cc1cccc(C)c1-c1cc(OC[C@@H](CC23CC(C2)C3)NCc2cnc3oc(C(C)(C)COCc4ccccc4)cc3n2)nc(NS(=O)(=O)c2cccc(C(=O)O)c2)n1, 31.3 mM, 16.0 h) [%]","ring closure, yield after HPLC ([1]; from Cc1cccc(C)c1-c1cc(OCC(CCC(C)(C)F)NCc2cnc3oc(C(C)C)cc3n2)nc(NS(=O)(=O)c2cccc(C(=O)O)c2)n1, 35.1 mM, 16.0 h) [%]","ring closure, yield after HPLC ([1]; from Cc1cccc(C)c1-c1cc(OCC(CCC2(C)CC2)NCc2cnc3oc(C4CC4)cc3n2)nc(NS(=O)(=O)c2cccc(C(=O)O)c2)n1, 12.8 mM, 24.5 h) [%]"
> 60,< 1000,> 60,3000 to 30000,"Cc1cccc(C)c1-c1cc2nc(n1)NS(=O)(=O)c1cccc(c1)C(=O)N(Cc1cnc3oc(C4CC4)cc3n1)C(CCC1(C)CC1)CO2 (single isomer, unassigned) [Compound I-71, 12-[(6-cyclopropylfuro[2,3-b]pyrazin-2-yl)methyl]-6-(2,6-dimethylphenyl)-11-[2-(1-methylcyclopropyl)ethyl]-2,2-dioxo-9-oxa-2λ^6-thia-3,5,12,19-tetrazatricyclo[12.3.1.14,8]nonadeca-1(18),4(19),5,7,14,16-hexaen-13-one]",,,,
> 60,< 1000,> 60,3000 to 30000,Cc1cccc(C)c1-c1cc2nc(n1)NS(=O)(=O)c1cccc(c1)C(=O)N(Cc1cnc3oc(C(C)C)cc3n1)[C@@H](CCC1(C)CC1)CO2 (stereo in doubt) [Compound I-70],,,,
> 60,< 1000,> 60,1000 to 3000,Cc1cccc(C)c1-c1cc2nc(n1)NS(=O)(=O)c1cccc(c1)C(=O)N(Cc1cnc3oc(C4CC4)cc3n1)[C@H](CCC(C)(C)C)CO2 [Compound I-24],,,,
> 60,< 1000,> 60,1000 to 3000,Cc1cccc(C)c1-c1cc2nc(n1)NS(=O)(=O)c1cccc(c1)C(=O)N(Cc1cnc3oc(C(C)C)cc3n1)[C@H](CC1CCC1)CO2 [Compound I-56],,,,
> 60,< 1000,> 60,3000 to 30000,Cc1cccc(C)c1-c1cc2nc(n1)NS(=O)(=O)c1cccc(c1)C(=O)N(Cc1cnc3oc(C(C)C)cc3n1)[C@H](CC1CC1)CO2 [Compound I-57],,,,
> 60,< 1000,> 60,1000 to 3000,Cc1cccc(C)c1-c1cc2nc(n1)NS(=O)(=O)c1cccc(c1)C(=O)N(Cc1cnc3oc(C4CC4)cc3n1)[C@H](CC1CC1)CO2 [Compound I-103],,,,
> 60,< 1000,> 60,3000 to 30000,"Cc1cccc(C)c1-c1cc2nc(n1)NS(=O)(=O)c1cccc(c1)C(=O)N(Cc1cnc3oc(C4CC4)cc3n1)[C@H](CC1CCC1)CO2 [Compound I-104, (11R)-11-(cyclobutylmethyl)-12-[(6-cyclopropylfuro[2,3-b]pyrazin-2-yl)methyl]-6-(2,6-dimethylphenyl)-2,2-dioxo-9-oxa-2λ^6-thia-3,5,12,19-tetrazatricyclo[12.3.1.14,8]nonadeca-1(18),4(19),5,7,14,16-hexaen-13-one]",,,,

# More lines, now with the values behind:
Compound,Emax [2] [%],EC50 [2] [nM],Emax [3] [%],EC50 [3] [nM],"ring closure, yield after HPLC ([1]; from Cc1cccc(C)c1-c1cc(OC[C@@H](CC2(C)CC2)NCc2ccn3nc(C(C)C)cc3n2)nc(NS(=O)(=O)c2cccc(C(=O)O)c2)n1, 9.91 mM, 25.0 °C, 16.5 h) [%]","ring closure, yield after HPLC ([1]; from Cc1cccc(C)c1-c1cc(OC[C@@H](CC23CC(C2)C3)NCc2cnc3oc(C(C)(C)COCc4ccccc4)cc3n2)nc(NS(=O)(=O)c2cccc(C(=O)O)c2)n1, 31.3 mM, 16.0 h) [%]","ring closure, yield after HPLC ([1]; from Cc1cccc(C)c1-c1cc(OCC(CCC(C)(C)F)NCc2cnc3oc(C(C)C)cc3n2)nc(NS(=O)(=O)c2cccc(C(=O)O)c2)n1, 35.1 mM, 16.0 h) [%]","ring closure, yield after HPLC ([1]; from Cc1cccc(C)c1-c1cc(OCC(CCC2(C)CC2)NCc2cnc3oc(C4CC4)cc3n2)nc(NS(=O)(=O)c2cccc(C(=O)O)c2)n1, 12.8 mM, 24.5 h) [%]"
Cc1cccc(C)c1-c1cc2nc(n1)NS(=O)(=O)c1cccc(c1)C(=O)N(Cc1ccn3nc(C(C)C)cc3n1)[C@H](CC1(C)CC1)CO2,,,,,43,,,
Cc1cccc(C)c1-c1cc2nc(n1)NS(=O)(=O)c1cccc(c1)C(=O)N(Cc1cnc3oc(C(C)(C)COCc4ccccc4)cc3n1)[C@H](CC13CC(C1)C3)CO2,,,,,,69,,
Cc1cccc(C)c1-c1cc2nc(n1)NS(=O)(=O)c1cccc(c1)C(=O)N(Cc1cnc3oc(C(C)C)cc3n1)C(CCC(C)(C)F)CO2 (stereo not shown),,,,,,,65,
"Cc1cccc(C)c1-c1cc2nc(n1)NS(=O)(=O)c1cccc(c1)C(=O)N(Cc1cnc3oc(C4CC4)cc3n1)C(CCC1(C)CC1)CO2 (single isomer, unassigned; isomer 1)",,,,,,,,48
Cc1cccc(C)c1-c1cc2nc(n1)NS(=O)(=O)c1cccc(c1)C(=O)N(Cc1nc3cc(C(C)C)oc3cc1F)[C@H](CC13CC(C1)C3)CO2 [Compound I-89],> 60,< 1000,> 60,1000 to 3000,,,,
Cc1cccc(C)c1-c1cc2nc(n1)NS(=O)(=O)c1cccc(c1)C(=O)N(Cc1cnc3oc(C4(C)CC4)cc3n1)[C@H](CC13CC(C1)C3)CO2 [Compound I-97],> 60,< 1000,> 60,1000 to 3000,,,,
